Laboratory results published in patent US20110045083A1, “USE LARCH WOOD FOR TREATING INFLAMMATION” (priority 2007, published 2011).

Test system: 5-LOX mediated LT biosynthesis
Test: LT biosynthesis inhibition assay in activated neutrophile granulocytes, LTB4 EIA
Type: cell-based, human
Settings: for IC50 / inhibition at 50 µM: Homo sapiens; for inhibition at 50 µM: screening concentration 50 μM
Protocol: 1.) LT biosynthesis inhibition assay
The assay was performed as described in [Michael Adams, Olaf Kunert, Ernst Haslinger, Rudolf Bauer: Inhibition of Leukotriene Biosynthesis by Quinolone Alkaloids from the Fruits of Evodia Rutaecarpa; Planta med. 2004 (70): 904-908] with some modifications.
Principle: Activated neutrophile granulocytes with 5-LOX activity are incubated with a defined concentration of test sample and arachidonic acid. After stopping the enzymatic reaction by addition of formic acid and centrifugation to remove cellular fragments, the produced LTB4 is quantified in the supernatant by means of an LTB4 EIA kit.
Isolation of human neutrophile granulocytes: 30 ml of venous human blood from healthy voluntary donors are collected with a Vacutainer™ (BD, Plymouth, UK) system containing a 0.219 M pre-analytical citric acid solution. The blood is immediately transferred to a falcon tube containing 20 ml of sedimentation solution (1% NaCl, 6% dextran T-500) and left to separate for 60 min at 4° C. While most of the dense erythrocytes sink into the dextran layer, the lighter blood fractions remain in the upper layer which is then removed and centrifuged at 1600 rpm (4° C., 10 min) to concentrate the leukocytes. The plasma supernatant is discarded, the pellet is resuspended in 10 ml of a wash buffer (10% CaCl2.2H2O p.a.; 0.1% anhydrous d-glucose; 0.2% MgCl2.6H2O; 0.04% KCl; 1.75% TRIS p.a.; with the pH adjusted to 7.6 with 1N HCl). After centrifugation at 1400 rpm (4° C., 10 min) and removal of the supernatant the resulting pellet is resuspended in 10 ml of a hypotonic lysis buffer (0.17% NH4Cl; 0.2% TRIS; pH 7.2) and gently shaken for 5 min at room temperature to destroy remaining erythrocytes. The suspension is submitted to another centrifugation at 1400 rpm (4° C., 5 min). The pellet is resuspended in 10 ml of wash buffer and then centrifuged at 1400 rpm (4° C., 15 min). The resulting pellet which now mainly contains neutrophile granulocytes is resuspended in 2 ml of TRIS buffer (1.75% TRIS p.a., 0.9% NaCl, pH 7.4), tested for vitality, quantified and then diluted to a cell concentration of 4500 cells/ml with TRIS buffer.
Cell vitality test: 50 μl of cell suspension and 10 μl of trypan blue solution (0.4%) (Sigma Chemical Co. Steinheim, Germany) are mixed on a glass object carrier and examined with a light microscope at 1000 fold magnification. Dead cells appear larger and darker due to absorption of trypan blue. The vitality of the cells must be >95%.
Determination of cell concentration: 10 μl of granulocyte cell suspension are dyed using 990 μl aqueous TURKS solution (Merck) and quantified in a “Neubauer” chamber (Assistent, Germany).
Sample preparation: samples are dissolved in an appropriate amount of ethanol p.a. to be added to the test mixture resulting in screening concentrations of 50 μM for pure compounds and 20 μg/ml for crude. The commercially available 5-LOX inhibitor zileuton (Sequoia Research Products Ltd., UK) is used as a positive control at a concentration of 10 μM representing its IC50 in this test system.
Incubation procedure: The incubation mixture in a 96-well flat bottom microtitre plate (Bibby Sterilin, Staffordshire, UK) consists of 265 μl leukocyte suspension, with 75.5 μM CaCl2, 0.152 μM […] (ETYA) as an inhibitor of the 12-LOX pathway, 0.642 μM Ca ionophore A23187 and 4.43 μM arachidonic acid, the substrate of the 5-LOX pathway, along with 5 μl of each test solution or 5 μl of EtOH p.a. in control wells. After incubation for 10 min at 37° C. in darkness, the reaction is stopped by addition of 20 μl of 10% formic acid. The microtitre plate is centrifuged for 15 min at 1400 rpm to separate free LTB4 from cellular particles before the supernatant is diluted 40 fold in EIA buffer and applied to a competitive LTB4 EIA kit (Assay Designs Inc.).
LTB4 EIA: The plate is incubated for 2 hours at room temperature on an orbital shaker. […]

Row | IC50 [µM] | IC50 LT assay | Compound | inhibition at 50 µM [%]
1 | 10.9 |  | CC(C)c1ccc2c(c1)CCC1C(C)(CO)CCCC21C (stereo not shown) [Dehydroabietinol] | 94.5 ± 1.4
2 | 10.2 |  | C=C[C@@]1(C)CC[C@H]2C(=CC[C@@H]3[C@]2(C)CCC[C@@]3(C)C(=O)O)C1 [Isopimaric acid] | 98.1 ± 0.5
3 | 10.4 |  | C=CC(C)(O)CCC1C(=C)CC(OC(C)=O)C2C(C)(C)CCCC12C (stereo not shown) [Larixyl acetate] | 98.1 ± 0.1
4 | > 125 | inactive | C=CC(C)(O)CCC1C(=C)CC(O)C2C(C)(C)CCCC12C (stereo not shown) [Larixol] | 32.7 ± 5
5 | 44.6 |  | CC(C)c1ccc2c(c1)CCC1C(C)(C(=O)O)CCCC21C (stereo not shown) [Dehydroabietic acid] | 47.9 ± 8.4

Row | Compound | IC50 [µM] | IC50 LT assay | inhibition at 50 µM [%]
6 | CC(C)C1=CC2=C(CC1)C1(C)CCCC(C)(C(=O)O)C1CC2 (stereo not shown) [Palustric acid] | 17.8 |  | 66.7 ± 3.1
